This passage reports solubility and saturation solubility results from patent US20080096951A1 (SB Pharmo Puerto Rico Inc., priority 2002, published 2008).

Values after ≈ are worked out from the molar mass of the structure shown. Where two headings read alike, the source gives them in different places.

One data set can be described thus: physchem. The settings on record: 25 °C, water, thermodynamic from solid. The method, then:
Glass vials containing water and excess amount of carvedilol salts were shaken by a mechanical shaker at ambient conditions. Aliquots were taken out at various time-point, filtered through 0.45 μm Acrodisc GHP filter. The pH of the filtered solutions was measured and suitable dilution was performed prior to UV-Vis analysis of carvedilol concentration.

For data set [1] the following is noted: cited from earlier work.

Compound `COc1ccccc1OCCNCC(O)COc1cccc2[nH]c3ccccc3c12` (racemic) [Carvedilol Free Base] had a solubility at 1 h in the data set “physchem” of 9.8 µg/mL (≈ 24.1 µM). Besides, in the data set “physchem”, the concentration in solution (solubility at 24 h) was 11.6 µg/mL (≈ 28.5 µM). Also, the solubility in data set [1] (above pH 9.0) was less than 1 µg/mL. Moreover, the saturation solubility in data set [1] (pH 5, room temperature) is roughly 100 µg/mL; in data set [1] (pH 7, room temperature) it was roughly 23 µg/mL.

For orientation: solubility means how much of the substance goes into solution per volume.
